Measurements taken from article PMC11003488 (Journal of Enzyme Inhibition and Medicinal Chemistry, 2023).
Read-outs that look alike come from different tables or passages of the source.

Legend:
CAKI-1 = experiment: NCI-60 SRB growth inhibition, one-dose and five-dose; type: cell-based; settings: Homo sapiens
MCF7 = experiment: as above; type: cell-based; settings: Homo sapiens
MALME-3M = experiment: as above; type: cell-based; settings: Homo sapiens
NCI/ADR-RES = experiment: as above; type: cell-based; settings: Homo sapiens
SF-539 = experiment: as above; type: cell-based; settings: Homo sapiens
DU-145 = experiment: as above; type: cell-based; settings: Homo sapiens
OVCAR-5 = experiment: as above; type: cell-based; settings: Homo sapiens
CCRF-CEM = experiment: as above; type: cell-based; settings: Homo sapiens
OVCAR-4 = experiment: as above; type: cell-based; settings: Homo sapiens
ACHN = experiment: as above; type: cell-based; settings: Homo sapiens
SNB-19 = experiment: as above; type: cell-based; settings: Homo sapiens
NCI-H522 = experiment: as above; type: cell-based; settings: Homo sapiens
HCT-116 = experiment: as above; type: cell-based; settings: Homo sapiens
OVCAR-3 = experiment: as above; type: cell-based; settings: Homo sapiens
LOX IMVI = experiment: as above; type: cell-based; settings: Homo sapiens
SF-295 = experiment: as above; type: cell-based; settings: Homo sapiens
HCC-2998 = experiment: as above; type: cell-based; settings: Homo sapiens
[1] = test system: NCI 60-cell line panel (full panel); experiment: NCI-60 SRB growth inhibition, full panel mean / MG-MID; type: cell-based, human; settings: for GI50: Homo sapiens, 60 cell
SNB-75 = experiment: NCI-60 SRB growth inhibition, one-dose and five-dose; type: cell-based; settings: Homo sapiens
K-562 = experiment: as above; type: cell-based; settings: Homo sapiens
A498 = experiment: as above; type: cell-based; settings: Homo sapiens
SK-MEL-2 = experiment: as above; type: cell-based; settings: Homo sapiens, SK-MEL-2, read-out: percent growth inhibition
COLO 205 = experiment: as above; type: cell-based; settings: Homo sapiens
HOP-62 = experiment: as above; type: cell-based; settings: Homo sapiens
HT29 = experiment: as above; type: cell-based; settings: Homo sapiens
T-47D = experiment: as above; type: cell-based; settings: Homo sapiens, T47D
NCI-H460 = experiment: as above; type: cell-based; settings: Homo sapiens
UACC-62 = experiment: as above; type: cell-based; settings: Homo sapiens
SK-MEL-5 = experiment: as above; type: cell-based; settings: Homo sapiens
MDA-MB-435 = experiment: as above; type: cell-based; settings: Homo sapiens
SF-268 = experiment: as above; type: cell-based; settings: Homo sapiens
IGROV1 = experiment: as above; type: cell-based; settings: Homo sapiens
HCT-15 = experiment: as above; type: cell-based; settings: Homo sapiens
A549/ATCC = experiment: as above; type: cell-based; settings: Homo sapiens
NCI-H322M = experiment: as above; type: cell-based; settings: Homo sapiens
HOP-92 = experiment: as above; type: cell-based; settings: Homo sapiens
SR = experiment: as above; type: cell-based; settings: Homo sapiens
RXF 393 = experiment: as above; type: cell-based; settings: Homo sapiens
HS 578 T = experiment: as above; type: cell-based; settings: Homo sapiens
BT-549 = experiment: as above; type: cell-based; settings: Homo sapiens
786-0 = experiment: as above; type: cell-based; settings: Homo sapiens
NCI-H226 = experiment: as above; type: cell-based; settings: Homo sapiens
[2] = read-out: percent growth inhibition

O=C(/C=C/c1cccnc1)c1cccc(NCc2ccc(CO)cc2)c1 [Compound 5e, (E)-1–(3-((4-(hydroxymethyl)benzyl)amino)phenyl)-3-(pyridin-3-yl)prop-2-en-1-one]
GI50 (CAKI-1; CAKI-1): 13.5 µM | inhibition at 10 µM (CAKI-1; CAKI-1, read-out: percent growth inhibition): 42.3% | GI50 (MCF7; MCF7): 2.15 µM | inhibition at 10 µM (MCF7; MCF7, read-out: percent growth inhibition): 163% | GI50 (MALME-3M): 13.3 µM | inhibition at 10 µM (MALME-3M; [2]): 41.4% | GI50 (NCI/ADR-RES): 11.3 µM | inhibition at 10 µM (NCI/ADR-RES; [2]): 104% | GI50 (SF-539; SF-539): 14.5 µM | inhibition at 10 µM (SF-539; SF-539, read-out: percent growth inhibition): 98.5% | GI50 (DU-145; DU-145): 12.8 µM | inhibition at 10 µM (DU-145; DU-145, read-out: percent growth inhibition): 55% | GI50 (OVCAR-5; OVCAR-5): 14.6 µM | inhibition at 10 µM (OVCAR-5; OVCAR-5, read-out: percent growth inhibition): 32.6% | GI50 (CCRF-CEM): 5.17 µM | inhibition at 10 µM (CCRF-CEM; [2]): 131% | GI50 (OVCAR-4; OVCAR-4): 11.6 µM | inhibition at 10 µM (OVCAR-4; OVCAR-4, read-out: percent growth inhibition): 48.8% | GI50 (ACHN): 8.07 µM | inhibition at 10 µM (ACHN; [2]): 81.6% | GI50 (SNB-19; SNB-19): 12.4 µM | inhibition at 10 µM (SNB-19; SNB-19, read-out: percent growth inhibition): 74.9% | GI50 (NCI-H522; NCI-H522): 11.4 µM | inhibition at 10 µM (NCI-H522; NCI-H522, read-out: percent growth inhibition): 57.6% | GI50 (HCT-116; HCT-116, HCT-116, five-dose screening): 1.88 µM | inhibition at 10 µM (HCT-116; HCT-116, read-out: percent growth inhibition): 193% | GI50 (OVCAR-3; OVCAR-3): 10.3 µM | inhibition at 10 µM (OVCAR-3; OVCAR-3, read-out: percent growth inhibition): 131% | GI50 (LOX IMVI): 1.76 µM | inhibition at 10 µM (LOX IMVI; [2]): 197% | GI50 (SF-295; SF-295): 14.5 µM | inhibition at 10 µM (SF-295; SF-295, read-out: percent growth inhibition): 39.8% | GI50 (HCC-2998; HCC 2998): 5.6 µM | inhibition at 10 µM (HCC-2998; HCC 2998, read-out: percent growth inhibition): 190% | GI50 ([1]; read-out: Full panel GI50 mean): 9.96 µM | GI50 ([1]; read-out: Full panel MG-MID GI50): 9.96 µM | Full panel Mean GI % ([1]; mean over NCI-60 panel, single dose 10 µM): 86.06% | GI50 (SNB-75; SNB-75): 9.69 µM | inhibition at 10 µM (SNB-75; SNB-75, read-out: percent growth inhibition): 14.7% | GI50 (K-562; K562): 2.75 µM | inhibition at 10 µM (K-562; K562, read-out: percent growth inhibition): 99.1% | GI50 (A498; A498): 14.8 µM | inhibition at 10 µM (A498; A498, read-out: percent growth inhibition): 15.3% | inhibition at 10 µM (SK-MEL-2): 17.7% | GI50 (COLO 205; COLO 205): 16.3 µM | inhibition at 10 µM (COLO 205; COLO 205, read-out: percent growth inhibition): 37.3% | GI50 (HOP-62; HOP-62): 15 µM | inhibition at 10 µM (HOP-62; HOP-62, read-out: percent growth inhibition): 20.7% | GI50 (HT29; HT-29): 8.21 µM | inhibition at 10 µM (HT29; HT-29, read-out: percent growth inhibition): 173% | GI50 (T-47D): 9.17 µM | inhibition at 10 µM (T-47D; [2]): 59.1% | GI50 (NCI-H460; NCI-H460): 14 µM | inhibition at 10 µM (NCI-H460; NCI-H460, read-out: percent growth inhibition): 64.7% | GI50 (UACC-62; UACC-62): 11.3 µM | inhibition at 10 µM (UACC-62; UACC-62, read-out: percent growth inhibition): 59.8% | GI50 (SK-MEL-5; SK-MEL-5): 12.5 µM | inhibition at 10 µM (SK-MEL-5; SK-MEL-5, read-out: percent growth inhibition): 85.7% | GI50 (MDA-MB-435; MDA-MB-435): 5.26 µM | inhibition at 10 µM (MDA-MB-435; MDA-MB-435, read-out: percent growth inhibition): 58.7% | GI50 (SF-268; SF-268): 16.9 µM | inhibition at 10 µM (SF-268; SF-268, read-out: percent growth inhibition): 64.8% | GI50 (IGROV1; IGROV-1): 3.58 µM | inhibition at 10 µM (IGROV1; IGROV-1, read-out: percent growth inhibition): 86.3% | GI50 (HCT-15; HCT-15): 3.01 µM | inhibition at 10 µM (HCT-15; HCT-15, read-out: percent growth inhibition): 132% | GI50 (A549/ATCC; A549): 16.9 µM | inhibition at 10 µM (A549/ATCC; A549, read-out: percent growth inhibition): 16.4% | GI50 (NCI-H322M): 15 µM | inhibition at 10 µM (NCI-H322M; [2]): 18.6% | GI50 (HOP-92; HOP-92): 12.5 µM | inhibition at 10 µM (HOP-92; HOP-92, read-out: percent growth inhibition): 23.3% | GI50 (SR): 2.62 µM | GI50 (RXF 393; RXF 393): 13.7 µM | inhibition at 10 µM (RXF 393; RXF 393, read-out: percent growth inhibition): 121% | GI50 (HS 578 T): 18 µM | inhibition at 10 µM (HS 578 T; [2]): 33.5% | GI50 (BT-549; BT-549): 6.12 µM | inhibition at 10 µM (BT-549; BT-549, read-out: percent growth inhibition): 98.1% | GI50 (786-0; 786-0): 15.2 µM | inhibition at 10 µM (786-0; 786-0, read-out: percent growth inhibition): 108% | GI50 (NCI-H226; NCI-H226): 11.2 µM | inhibition at 10 µM (NCI-H226; NCI-H226, read-out: percent growth inhibition): 123%
